Some test systems named below: KM12 colon; MCF7 breast; HL-60(TB) leukemia; IGROV1 ovarian; OVCAR-4 ovarian; UACC-257 melanoma; HOP-62 NSCLC; SNB-75 CNS; MDA-MB-231 breast; NCI-H460 lung.
Common to all, as to assay: NCI tumour cell line growth inhibition, 48 h

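Each compound was tested at five concentrations against cells in 96-well plates for 48 hours. Abbreviation: GI50, concentration required for 50% inhibition of growth. TGI: concentration producing complete growth inhibition.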

On to `CC(=O)[O][Hg][CH2]C1(C)COC(C)([CH2][Hg][O]C(C)=O)CO1` (stereo not given), for which the GI50 in the assay with KM12 colon was 4.1 µM; in the assay on MCF7 breast it was 646 nM; in the assay on HL-60(TB) leukemia, 2890 nM; in the assay on IGROV1 ovarian, 2350 nM; in the assay on OVCAR-4 ovarian it was 26.4 µM; in the assay with UACC-257 melanoma, 4.51 µM. Also, the GI50 in the assay with HOP-62 NSCLC was 40.5 µM; in the assay on SNB-75 CNS, 17.7 µM; in the assay on MDA-MB-231 breast it was 12.5 µM; in the assay on NCI-H460 lung it was 15.7 µM. Moreover, the TGI in the assay on KM12 colon was 8.4 µM; with MCF7 breast, 2320 nM; with HL-60(TB) leukemia, 5.94 µM; in the assay with IGROV1 ovarian, 7.12 µM; with OVCAR-4 ovarian, 74.4 µM; in the assay with UACC-257 melanoma, 10.5 µM. Further, the TGI was more than 63.5 µM with HOP-62 NSCLC, 34 µM with SNB-75 CNS, 29.2 µM with MDA-MB-231 breast and 40.4 µM with NCI-H460 lung.
